According to paper PMC4403932 (Journal of Medicinal Chemistry, 2015):
Like-named read-outs stand apart in the source and are kept apart here.

What was measured:
Format in all cases: binding
BRD4(1) [1] = target: T1, BRD4(1) (Homo sapiens, UniProt O60885); assay: Isothermal titration calorimetry, BRD4(1)
T1 construct: made in house
Procedure: (§1) Experiments were carried out on an ITC200 titration microcalorimeter from MicroCal, LLC (GE Healthcare) equipped with a Washing module, with a cell volume of 0.2003 mL, and a 40 μL microsyringe. Experiments were carried out at 15 °C while stirring at 1000 rpm, in ITC buffer (50 mM HEPES, pH 7.5 (at 25 °C), 150 mM NaCl). The microsyringe was loaded with a solution of the protein sample (300−740 μM protein for BRD9 and BRD4(1), respectively, in ITC buffer) and was carefully inserted into the calorimetric cell which was filled with an amount of the ligand (0.2 mL, 20–25 μM in ITC buffer). The system was first allowed to equilibrate until the cell temperature reached 15 °C, and an additional delay of 60 s was applied. All titrations were conducted using an initial control injection of 0.3 μL followed by 38 identical injections of 1 μL with a duration of 2 s (per injection) and a spacing of 120 s between injections. The titration experiments were designed in such a fashion as to ensure complete saturation of the proteins before the final injection. The heat of dilution for the proteins was independent of their concentration and corresponded to the heat observed from the last injection, following saturation of ligand binding, thus facilitating the estimation of the baseline of each titration from the last injection. The collected data were corrected for protein heats of dilution (measured on separate experiments by titrating the proteins into ITC buffer) and deconvoluted using the MicroCal Origin software supplied with the instrument to yield enthalpies of binding (ΔH) and binding constants (KB) in the same fashion as that previously described in detail by Wiseman and co-workers.[66] Thermodynamic parameters were calculated using the basic equation of thermodynamics (ΔG = ΔH – TΔS = −RT ln KB, where ΔG, ΔH, and ΔS are the changes in free energy, enthalpy, and entropy of binding, respectively). In all cases a single binding site model was employed, supplied with the MicroCal Origin software package.

BRD9 [2] = target: T2, BRD9 (Homo sapiens, UniProt Q9H8M2); assay: Isothermal titration calorimetry, BRD9
T2 construct: made in house
T2 sequence (Q9H8M2 136-240 limits assumed): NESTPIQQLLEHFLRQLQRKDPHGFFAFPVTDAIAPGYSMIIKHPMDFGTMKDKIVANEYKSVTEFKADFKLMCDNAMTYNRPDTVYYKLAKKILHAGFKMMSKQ
Procedure: as §1

BRD9 [3] = target: T2, BRD9; assay: Protein stability (thermal) shift assay, BRD9
Procedure: (§2) Thermal melting experiments were carried out using an Mx3005p real time PCR machine (Stratagene). Proteins were buffered in 10 mM HEPES, pH 7.5, 500 mM NaCl and assayed in a 96-well plate at a final concentration of 2 μM in 20 μL volume. Compounds were added at a final concentration of 10 or 100 μM. SYPRO Orange (Molecular Probes) was added as a fluorescence probe at a dilution of 1 in 1000. Excitation and emission filters for the SYPRO-Orange dye were set to 465 and 590 nm, respectively. The temperature was raised with a step of 3 °C per minute from 25 to 96 °C, and fluorescence readings were taken at each interval. The temperature dependence of the fluorescence during the protein denaturation process was approximated by the equation [drawing 1] where ΔuG is the difference in unfolding free energy between the folded and unfolded state, R is the gas constant, and yF and yU are the fluorescence intensity of the probe in the presence of completely folded and unfolded protein, respectively.[65] The baselines of the denatured and native states were approximated by a linear fit. The observed temperature shifts, ΔTm^obs, were recorded as the difference between the transition midpoints of sample and reference wells containing protein without ligand in the same plate and determined by nonlinear least-squares fit. Temperature shifts (ΔTm^obs) for three independent measurements per proteins/compound are summarized in Supporting Information Table S1.

BRD3(2) = target: T3, BRD3(2) (Homo sapiens, UniProt Q15059); assay: Protein stability (thermal) shift assay, BRD3(2); conditions: compound 10 μM, protein 2 μM; average of triplicate
T3 construct: made in house
T3 sequence (Q15059 306-415 limits assumed): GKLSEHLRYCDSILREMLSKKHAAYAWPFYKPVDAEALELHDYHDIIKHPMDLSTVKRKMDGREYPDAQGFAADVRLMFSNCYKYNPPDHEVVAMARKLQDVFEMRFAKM
Procedure: as §2

BRDT(2) = target: T4, BRDT(2) (Homo sapiens, UniProt Q58F21); assay: Protein stability (thermal) shift assay, BRDT(2); conditions: compound 10 μM, protein 2 μM; average of triplicate; read-out: ΔTm Shift, BRDT(2)
T4 construct: made in house
Procedure: as §2

PB1(5) = target: T5, PB1(5) (Homo sapiens, UniProt Q86U86); assay: Protein stability (thermal) shift assay, PB1(5); conditions: compound 10 μM, protein 2 μM; average of triplicate
T5 construct: made in house
T5 sequence (Q86U86 653-763 limits assumed): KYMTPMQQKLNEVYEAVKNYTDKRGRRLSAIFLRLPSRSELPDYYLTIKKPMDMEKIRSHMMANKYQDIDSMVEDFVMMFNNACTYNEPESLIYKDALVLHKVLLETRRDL
Procedure: as §2

BAZ2B = target: T6, BAZ2B (Homo sapiens, UniProt Q9UIF8); assay: Protein stability (thermal) shift assay, BAZ2B; conditions: compound 10 μM, protein 2 μM; average of triplicate; read-out: ΔTm Shift, BAZ2BA
T6 construct: representative BRDs from other structural subfamilies (family I, PCAF); family III, CREBBP; family IV, BRD9; family V, BAZ2B; made in house
T6 sequence (Q9UIF8 2060-2164 limits assumed): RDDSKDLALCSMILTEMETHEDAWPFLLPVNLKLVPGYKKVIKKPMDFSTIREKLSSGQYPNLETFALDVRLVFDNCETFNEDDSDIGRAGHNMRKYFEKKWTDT
Procedure: as §2

PCAF = target: T7, PCAF (Homo sapiens, UniProt Q92831); assay: Protein stability (thermal) shift assay, PCAF; conditions: for ΔTm at 10 µM: compound 10 μM, protein 2 μM, average of triplicate
T7 construct: representative BRDs from other structural subfamilies (family I, PCAF); made in house
T7 sequence (Q92831 723-827 limits assumed): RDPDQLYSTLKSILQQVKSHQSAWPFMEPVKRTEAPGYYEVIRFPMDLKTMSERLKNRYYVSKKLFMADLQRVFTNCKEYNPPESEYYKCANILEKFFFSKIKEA
Procedure: as §2

BRD2(2) = target: T8, BRD2(2) (Homo sapiens, UniProt P25440); assay: Protein stability (thermal) shift assay, BRD2(2); conditions: compound 10 μM, protein 2 μM; average of triplicate
T8 construct: made in house
T8 sequence (P25440 344-453 limits assumed): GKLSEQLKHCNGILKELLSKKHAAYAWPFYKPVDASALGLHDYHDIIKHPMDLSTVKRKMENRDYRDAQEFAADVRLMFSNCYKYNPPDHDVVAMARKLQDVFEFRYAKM
Procedure: as §2

BRD4(2) = target: T9, BRD4(2) (Homo sapiens, UniProt O60885); assay: Protein stability (thermal) shift assay, BRD4(2); conditions: compound 10 μM, protein 2 μM; average of triplicate
T9 construct: made in house
Procedure: as §2

BRD2(1) = target: T10, BRD2(1) (Homo sapiens, UniProt P25440); assay: Protein stability (thermal) shift assay, BRD2(1); conditions: for ΔTm at 10 µM: compound 10 μM, protein 2 μM, average of triplicate
T10 construct: Fragments were tested in a thermal shift assay against bromodomains of the BET subfamily; made in house
T10 sequence (P25440 74-180 limits assumed): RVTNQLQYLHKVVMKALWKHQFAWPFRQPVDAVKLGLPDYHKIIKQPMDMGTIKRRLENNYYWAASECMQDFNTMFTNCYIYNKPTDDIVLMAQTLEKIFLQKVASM
Procedure: as §2

BRDT(1) = target: T11, BRDT(1) (Homo sapiens, UniProt Q58F21); assay: Protein stability (thermal) shift assay, BRDT(1); conditions: compound 10 μM, protein 2 μM; average of triplicate
T11 construct: made in house
Procedure: as §2

BRD3(1) = target: T12, BRD3(1) (Homo sapiens, UniProt Q15059); assay: Protein stability (thermal) shift assay, BRD3(1); conditions: compound 10 μM, protein 2 μM; average of triplicate
T12 construct: Fragments were tested in a thermal shift assay against bromodomains of the BET subfamily; made in house
T12 sequence (Q15059 34-140 limits assumed): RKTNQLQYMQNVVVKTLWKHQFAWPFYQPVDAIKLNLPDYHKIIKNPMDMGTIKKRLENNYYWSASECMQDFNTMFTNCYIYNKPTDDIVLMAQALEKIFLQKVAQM
Procedure: as §2

CREBBP = target: T13, CREBBP (Homo sapiens, UniProt Q92793); assay: Protein stability (thermal) shift assay, CREBBP; conditions: compound 10 μM, protein 2 μM; average of triplicate; read-out: ΔTm Shift, CREBBP
T13 construct: small thermal shits (1.0–1.3 °C) for the bromodomain of CREBBP; made in house
T13 sequence (Q92793 1085-1192 limits assumed): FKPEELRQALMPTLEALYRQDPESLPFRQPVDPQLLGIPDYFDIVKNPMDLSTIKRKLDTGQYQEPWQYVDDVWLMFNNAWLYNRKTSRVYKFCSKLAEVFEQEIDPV
Procedure: as §2

BRD4(1) [4] = target: T1, BRD4(1); assay: Protein stability (thermal) shift assay, BRD4(1); conditions: for ΔTm at 10 µM: compound 10 μM, protein 2 μM, average of triplicate, read-out: ΔTm Shift, BRD4(1)
Procedure: as §2

[5] = test system: human bromodomains (panel); assay: Protein stability (thermal) shift assay, whole panel of human bromodomains; conditions: 10 μM compound
Procedure: as §2

[6] = ITC, 50 mM HEPES pH 7.5, 150 mM NaCl, 15 °C, reverse titration, triplicate
[7] = compound 10 μM, protein 2 μM, average of triplicate, read-out: ΔTm Shift, BRD9
[8] = ITC, 50 mM HEPES pH 7.5, 150 mM NaCl, 15 °C, reverse titration, triplicate, read-out: KD
[9] = ITC, read-out: dissociation constant
[10] = LE = ΔG/N, N number of non-hydrogen atoms

KD (BRD9 [2]; [6]) | ΔTm at 10 µM (BRD9 [3]; [7]) [°C] | ΔTm at 10 µM (BRD3(2)) [°C] | ΔTm at 10 µM (BRDT(2)) [°C] | ΔTm at 10 µM (PB1(5)) [°C] | ΔTm at 10 µM (BAZ2B) [°C] | ΔTm at 10 µM (PCAF) [°C] | ΔTm at 10 µM (BRD2(2)) [°C] | ΔTm at 10 µM (BRD4(2)) [°C] | ΔTm at 10 µM (BRD2(1)) [°C] | ΔTm at 10 µM (BRDT(1)) [°C] | ΔTm at 10 µM (BRD3(1)) [°C] | ΔTm at 10 µM (CREBBP) [°C] | ΔTm at 10 µM (BRD4(1) [4]) [°C] | Structure (SMILES) | other results
no binding/weak | 0.01 |  |  |  |  |  |  |  |  |  |  |  |  | Nc1nc(Br)c2nc[nH]c2n1 [Compound 2a, 2-amino-6-bromo-9H-purine] | KD (BRD4(1) [1]; [6]): no binding/weak; ΔTm at 10 µM (BRD9 [3]; thermal shift, 10 μM compound, 2 μM protein, read-out: ΔTm): 1.6 °C
no binding/weak | -0.0162 | -0.6 | -0.4 | 1.9 | -0.8 | -1.6 | -1.8 | -2.4 | -0.239 | -0.8 | 0.654 | 3.1 | 1.4 | Cn1cnc2c(Br)nc(N)nc21 [Compound 2b, 2-Amino-6-bromo-9-methylpurine] | 
 | -0.107 | 0.6 | 0.7 | 0.9 | 0.537 | 1.3 | 0.9 | 0.5 | 1.7 | 0.739 | 0.9 | 0.847 | 1.4 | Nc1nc(-c2ccccc2)c2nc[nH]c2n1 [Compound 3a, 2-Amino-6-phenyl-9H-purine] | stabilization of PCAF in thermal melt assay (in words) (PCAF; thermal shift, 10 μM compound): stabilized; Kd (BRD4(1) [1]; [8]): 12 ± 0.743 µM; ΔG (BRD4(1) [1]; ITC, 15 °C): –6.48 kcal/mol; N (stoichiometry) (BRD4(1) [1]; ITC, 15 °C, reverse titration): 1.03 ± 0.049; Kd (BRD4(1) [1]; [9]): 12 µM; LE (ligand efficiency) (BRD4(1) [1]; [10]): 0.41; stabilization of BRD2(1) in thermal melt assay (in words) (BRD2(1); thermal shift, 10 μM compound): stabilized; stabilization of BRD4(1) in thermal melt assay (in words) (BRD4(1) [4]; thermal shift, 10 μM compound): stabilized; Kd (BRD9 [2]; [8]): 8.47 ± 0.237 µM; ΔG (BRD9 [2]; ITC, 15 °C): –6.69 kcal/mol; N (stoichiometry) (BRD9 [2]; ITC, 15 °C, reverse titration): 0.99 ± 0.010; Kd (BRD9 [2]; [9]): 8.5 µM; LE (ligand efficiency) (BRD9 [2]; [10]): 0.42; binding to BRD9 in the ΔTm assay (in words) (BRD9 [3]; thermal shift, 10 μM compound): lack of affinity
 | -0.116 | 4.2 | 3.2 | 1.5 |  | 2.8 | 3.8 | -51.9 | 2 | 1.8 | 2.2 | 2.6 | 3.5 | Nc1nc(-c2ccc(OCc3ccccc3)cc2)c2nc[nH]c2n1 [Compound 3f, 2-Amino-6-(4-(benzyloxy)phenyl)-9H-purine] | binding to the bromodomain panel in the ΔTm assay (in words) [5]: showed binding toward all BRDs
